Target: Muscarinic acetylcholine receptor M3 (Homo sapiens, UniProt P20309)
Assay: Binding affinity for human cloned Muscarinic M3 receptors

Sequence of Muscarinic acetylcholine receptor M3 (P20309 whole entry): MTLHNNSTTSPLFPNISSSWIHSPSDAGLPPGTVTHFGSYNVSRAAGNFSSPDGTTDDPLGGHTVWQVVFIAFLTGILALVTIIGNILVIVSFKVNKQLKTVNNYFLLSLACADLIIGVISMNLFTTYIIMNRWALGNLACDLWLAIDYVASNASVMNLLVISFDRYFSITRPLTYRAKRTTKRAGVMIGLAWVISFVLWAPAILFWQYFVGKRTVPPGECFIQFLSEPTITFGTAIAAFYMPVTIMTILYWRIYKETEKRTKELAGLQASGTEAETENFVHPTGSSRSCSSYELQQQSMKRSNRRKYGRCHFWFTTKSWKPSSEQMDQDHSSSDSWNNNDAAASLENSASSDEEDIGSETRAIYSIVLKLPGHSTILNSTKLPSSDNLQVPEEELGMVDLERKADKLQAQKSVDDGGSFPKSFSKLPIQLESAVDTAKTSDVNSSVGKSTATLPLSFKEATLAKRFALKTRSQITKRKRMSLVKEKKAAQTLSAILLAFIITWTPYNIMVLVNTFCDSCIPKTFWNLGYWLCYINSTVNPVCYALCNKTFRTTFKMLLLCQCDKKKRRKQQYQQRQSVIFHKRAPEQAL

SMILES: CC(C)=CCCN1CCC(NC(=O)[C@](O)(c2ccccc2)C2CCCC2)CC1
- Ki: 4.2 nM

Reference: ChEMBL document CHEMBL1132129, “Stereoselective synthesis of a new muscarinic M3 receptor antagonist, J-104129” (Bioorg Med Chem Lett, 1999)
